From US20260297086A1, “CRYSTALLINE PROLYL HYDROXYLASE DOMAIN-CONTAINING PROTEIN (PHD) INHIBITOR AND USES THEREOF” (Insilico Medicine IP Limited, priority 2023, published 2026)

Columns and labels:
PHD2 = PHD2 (Homo sapiens, UniProt Q9GZT9); assay: PHD2 Enzymatic Assay (AlphaScreen); type: biochemical; settings: PHD2 enzyme, 30 min preincubation at RT
Description: Example 1: PHD2 Enzymatic Assay Procedure
Compound DMSO stock preparation: Compound 1 was reconstituted into 20 mM stock by DMSO.
Compound storage: Compound 1 in DMSO was stored at RT in a desiccator for short-term storage (up to 3 months).
• Reference Roxadustat (FG-4592) was 3-fold serial diluted from 400 μM for 10 doses in DMSO. • The compounds were 3-fold serial diluted from 400 μM for 10 doses in DMSO. • Prepared 200× positive control (400 μM, FG-4592) and 200× vehicle control (100% DMSO). • Centrifuged compound plates at 1000 rpm for 1 min.
• a) Transferred 40 nl compound dilutions into each well of assay plates using Echo 655; • b) Sealed the assay plate and centrifuge compound plates at 1000 rpm for 1 min. • c) Prepared and add 4 μL of the 2×PHD2 enzyme working solution to individual well of the assay plate. • d) Sealed the assay plate and centrifuge compound plates at 1000 rpm for 1 min. […]
• ALPHASCREEN signal (ALPcmpd) is calculated for each well • % Inhibition is calculated as follow:
[formula] • ALPpositive: The average ALP for the positive controls across the plate. • ALPvehicle: The average ALP for the negative controls across the plate. • Calculate IC50 and Plot effect-dose curve of compounds: • Calculated IC50 by fitting % inhibition values and log of compound concentrations to nonlinear regression (dose response−variable slope) with Graphpad 8.0. […]

HIF1α (Caco2 cells) = assay: Caco2-HIF1α-HiBit assay; type: cell-based; settings: Homo sapiens, Caco-2

Chain of PHD2 (Q9GZT9 whole entry): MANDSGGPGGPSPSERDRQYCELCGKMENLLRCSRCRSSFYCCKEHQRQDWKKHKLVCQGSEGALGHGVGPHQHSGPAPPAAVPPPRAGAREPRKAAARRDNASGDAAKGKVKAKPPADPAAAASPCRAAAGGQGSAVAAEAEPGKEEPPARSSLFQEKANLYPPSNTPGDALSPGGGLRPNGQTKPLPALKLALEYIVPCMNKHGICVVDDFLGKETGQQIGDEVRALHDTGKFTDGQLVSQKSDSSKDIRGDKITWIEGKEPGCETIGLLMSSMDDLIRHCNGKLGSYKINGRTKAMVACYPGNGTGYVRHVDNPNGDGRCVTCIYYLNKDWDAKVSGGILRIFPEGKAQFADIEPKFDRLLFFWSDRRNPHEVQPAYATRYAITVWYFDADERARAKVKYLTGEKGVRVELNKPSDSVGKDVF

IC50 (PHD2): < 5 nM
EC50 (HIF1α (Caco2 cells)): < 2500 nM
SMILES: CC(C)(C)OC(=O)N1CCN(c2ccc3c(O)c(C(=O)NCc4ccc(C#N)nc4)ncc3n2)CC1 [Compound 1, tert-butyl 4-(6-(((6-cyanopyridin-3-yl)methyl)carbamoyl)-5-hydroxy-1,7-naphthyridin-2-yl)piperazine-1-carboxylate]
